Data on 4 molecules can be found in patent EP0982399B1, “Thyroid hormone transporters, agonists and antagonists thereof” (Stichting tot bevordering van de wetenschap der …, priority 1998, dated 2000).

Molecules are shown by their SMILES. Structures can show the parent of a compound that is named as a salt.

A short description of data set [1]: Uptake of [125I]iodothyronine derivatives by Xenopus laevis oocytes injected with Ntcp cRNA. As to conditions: for uptake ratio at 1 h: oatp1, choline. As to the method: (§1) For capping, the m7G[5']ppp[5']G cap analog was used (Epicentre Technologies). cRNA was stored in water at -80 C at a concentration of 0.1 mg/ml.
(§2) Oocytes were prepared as described previously (9). After isolation, the oocytes were sorted on morphological criteria and defolliculated manually. […] The next day, oocytes were injected with 23 nl water containing 23 ng mRNA, 2.3 ng Ntcp cRNA or 2.3 ng oatp1 cRNA using the Nanoject system (Drummond Scientific, Broomall, PA). Injected and uninjected oocytes were maintained for 2-3 days at 18 C in modified Barth's solution.
(§3) Uptake assays were performed as described previously (9). […] After 1 h, incubation buffer was removed and the oocytes were washed four times with 2.5 ml ice-cold Na^+-containing incubation buffer supplemented with 0.1% BSA. Oocytes were transferred to new tubes and counted individually.

For data set [2], the system named is Na^+-independent organic anion transporting polypeptide (oatp1). Briefly: Uptake of [125I]iodothyronine derivatives by Xenopus laevis oocytes injected with oatp1 cRNA. Particulars: oatp1 cRNA-injected oocytes; 1-2 nM ligand; Na^+ medium. As to the method:
as §1, §2, §3

`N[C@@H](Cc1ccc(Oc2ccc(O)c(I)c2)c(I)c1)C(=O)O` [3,3'-T2, 3,3'-diiodothyronine]: the uptake ratio at 1 h, 100 µM in data set [1] stood at 1.3; in data set [1] (xenopus oocytes, oatp1 crna) it was 1.4. In addition, in data set [1] (xenopus oocytes), the uptake ratio at 1 h came out at 1.8.

`NC(Cc1cc(I)c(Oc2ccc(OS(=O)(=O)O)c(I)c2)c(I)c1)C(=O)O` (stereo not shown) [T3S, T3 sulfate]: the “uptake higher than that of the other sulfates” value in data set [2] is about 50%.

Consider `N[C@@H](Cc1cc(I)c(Oc2cc(I)c(O)c(I)c2)c(I)c1)C(=O)O` [T4, 3,3',5,5'-tetraiodothyronine], for which the uptake ratio at 1 h, 100 µM in data set [1] (xenopus oocytes, ntcp crna) stood at 1.9; in data set [1] (xenopus oocytes, oatp1 crna), 2.8. The uptake ratio at 1 h in data set [1] (xenopus oocytes) stood at 3.8.

Regarding `N[C@@H](Cc1ccc(Oc2cc(I)c(O)c(I)c2)c(I)c1)C(=O)O` [rT3, 3,3',5'-triiodothyronine], the uptake ratio at 1 h, 100 µM in data set [1] worked out at 1.8; in data set [1] (xenopus oocytes, oatp1 crna), 6. The uptake ratio at 1 h in data set [1] (xenopus oocytes) amounted to 8.5.
